Among the data in patent publication US12304899B2, “Factor XI activation inhibitors” (Merck Sharp & Dohme LLC, priority 2019, dated 2025) are EC50 values, retold here.

The target in this assay is T1, Human coagulation factor (F)XI (Homo sapiens, UniProt P03951).
T1 construct: purchased Haematologic Technologies Inc. (FXI); Enzyme Research Laboratories (FXIIa) HCXI-150 (FXI); HFXIIa (FXIIa)
Put plainly: Inhibition of FXIIa mediated activation of FXI (activation of human Factor XI to XIa by human Factor α-XIIa). It counts as biochemical. The note with it: human FXI pre-incubated with compound 30 min at 22° C., activation by human FXIIa 60 min, z-GPR-AFC substrate fluorescence, 4 parameter logistic fit; read-out: Inhibition of FXIIa meditated activation of FXI. As to the method: Inhibition of FXIIa Mediated Activation of FXI
Activation of Human Factor XI to XIa by Human Factor α-XIIa
The assay was performed in 50 mM HEPES, 150 mM NaCl, 5 mM CaCl2, 0.1% PEG-8000, pH 7.4 buffer in black, flat-bottom, polystyrene microplates (Corning, Cat #3573). Serial dilutions (10-point, 3.333-fold) of the test compounds delivered as 10 mM DMSO stocks were prepared in the Labcyte Echo-qualified PP 384 well microplates (Labcyte, Cat #P-05525). Human coagulation factor (F)XI (Haematologic Technologies Inc., Cat #HCXI-150, concentration 46 nM, 19.5 uL) was pre-incubated with 0.5 uL of the test compounds for 30 min at 22° C. The activation was initiated by addition of 10 uL of human coagulation factor (F)XIIa (Enzyme Research Laboratories, Cat #HFXIIa, concentration 30 nM) and the reaction proceeded for 60 min at 22° C., after which it was quenched by addition of a selective inhibitor of FXIIa (Compound 54 in International Patent Publication WO2018093695) concentration 600 uM in DMSO, 1 uL). 10 min after the quench, 29 uL of z-GPR-AFC substrate (Sigma, Cat #C0980-10 MG, concentration 200 uM) was added into each well and the detection reaction proceeded for 60 min at 22° C. Fluorescence at 405/510 nm was measured in end-point mode using an Envision plate-reader (Perkin Elmer). IDBS Activity Base XE (ABase) analysis using 4 parameter logistic fit was performed to determine Minimum, Maximum, EC50, and Slope Factor for each compound.

T1 sequence (P03951 19-625): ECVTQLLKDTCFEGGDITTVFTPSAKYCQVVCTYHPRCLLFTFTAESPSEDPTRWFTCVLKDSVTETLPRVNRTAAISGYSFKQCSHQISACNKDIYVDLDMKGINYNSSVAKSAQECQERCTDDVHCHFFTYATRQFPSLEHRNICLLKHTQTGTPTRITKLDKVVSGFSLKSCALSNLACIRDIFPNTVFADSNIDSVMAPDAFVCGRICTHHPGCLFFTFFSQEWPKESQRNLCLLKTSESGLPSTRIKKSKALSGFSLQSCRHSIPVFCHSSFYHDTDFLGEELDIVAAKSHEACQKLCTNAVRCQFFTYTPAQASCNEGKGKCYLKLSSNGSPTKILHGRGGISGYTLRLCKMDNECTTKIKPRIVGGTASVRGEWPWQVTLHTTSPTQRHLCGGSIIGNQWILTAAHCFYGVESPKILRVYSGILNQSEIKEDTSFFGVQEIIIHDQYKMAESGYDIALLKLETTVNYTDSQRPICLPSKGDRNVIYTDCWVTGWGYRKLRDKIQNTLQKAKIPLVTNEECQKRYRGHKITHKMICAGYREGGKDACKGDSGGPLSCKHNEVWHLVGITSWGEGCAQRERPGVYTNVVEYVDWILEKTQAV

On to `CC1(O)CCN(C(=O)c2cc(C(=O)N3CCCCC3)c3cc(OCc4ccc5c(c4Cl)COC5=O)ccc3n2)C1` (racemic) [Example 4, rac-4-chloro-5-(((2-(3-hydroxy-3-methylpyrrolidine-1-carbonyl)-4-(piperidine-1-carbonyl)quinolin-6-yl)oxy)methyl)isobenzofuran-1(3H)-one], for which the EC50 was 0.0096 µM.
For the compound `Cc1c(COc2ccc3nc(C(=O)N4CCC(C)(O)C4)cc(C(=O)N4CCCCC4)c3c2)ccc2c1COC2=O` (single isomer, unassigned) [Example 5a, 5-(((2-(3-hydroxy-3-methylpyrrolidine-1-carbonyl)-4-(piperidine-1-carbonyl)quinolin-6-yl)oxy)methyl)-4-methylisobenzofuran-1(3H)-one], the EC50 was determined as 0.0318 µM.
`Cc1c(COc2ccc3nc(C(=O)N4CCC(C)(O)C4)cc(C(=O)N4CCCCC4)c3c2)ccc2c1COC2=O` (single isomer, unassigned) [Example 5b, 5-(((2-(3-hydroxy-3-methylpyrrolidine-1-carbonyl)-4-(piperidine-1-carbonyl)quinolin-6-yl)oxy)methyl)-4-methylisobenzofuran-1(3H)-one]: the EC50 was 0.0388 µM.
Regarding `Cc1c(COc2ccc3nc(C(=O)N4CCC(C#N)(n5cccn5)CC4)cc(C(=O)N4CCCCC4)c3c2)ccc2c1COC2=O` [Example 1, 1-(6-((4-methyl-1-oxo-1,3-dihydroisobenzofuran-5-yl)methoxy)-4-(piperidine-1-carbonyl)quinoline-2-carbonyl)-4-(1H-pyrazol-1-yl)piperidine-4-carbonitrile], the EC50 is 0.0218 µM.
The value for `N#CC1(n2cccn2)CCN(C(=O)c2cc(C(=O)N3CCCCC3)c3cc(OCc4ncc(C(F)(F)F)cc4Cl)ccc3n2)CC1` [Example 2, 1-(6-((3-chloro-5-(trifluoro-methyl)pyridin-2-yl)meth-oxy)-4-(piperidine-1-carbon-yl)quinoline-2-carbonyl)-4-(1H-pyrazol-1-yl)piperidine-4-carbonitrile] was 0.0322 µM; that for `Cc1c(COc2ccc3nc(C(=O)N4CCC(C#N)(c5ccccc5)CC4)cc(C(=O)N(C)C)c3c2)ccc2c1COC2=O` [Example 3, 2-(4-cyano-4-phenylpiperidine-1-carbonyl)-N,N-dimethyl-6-((4-methyl-1-oxo-1,3-dihydroisobenzofuran-5-yl)methoxy)quinoline-4-carboxamide] was 0.0396 µM; that for `O=C(c1cc(C(=O)N2CCCCC2)c2cc(OCc3ccc4nnsc4c3)ccc2n1)N1CCC(n2cccn2)CC1` [Example 6, (4-(1H-pyrazol-1-yl)piperidin-1-yl)(6-(benzo[d][1,2,3]thiadiazol-6-ylmethoxy)-4-(piperidine-1-carbonyl)quinolin-2-yl)methanone] was 0.0492 µM.
For the compound `O=C(c1cc(C(=O)N2CCCCC2)c2cc(OCc3ccc4snnc4c3)ccc2n1)N1CCC(n2cccn2)CC1` [Example 7, (4-(1H-pyrazol-1-yl)piperidin-1-yl)(6-(benzo[d][1,2,3]thiadiazol-5-ylmethoxy)-4-(piperidine-1-carbonyl)quinolin-2-yl)methanone], the EC50 stood at 0.0195 µM.
As to `O=C(c1cc(C(=O)N2CCCCC2)c2cc(OCCCc3cccnc3)ccc2n1)N1CCC(n2cccn2)CC1` [Example 8, (4-(1H-pyrazol-1-yl)piperidin-1-yl)(4-(piperidine-1-carbon-yl)-6-(3-(pyridin-3-yl)pro-poxy)quinolin-2-yl)methanone], the EC50 is 0.0188 µM.
The value for `N#Cc1ccc(COc2ccc3nc(C(=O)N4CCC(n5cccn5)CC4)cc(C(=O)N4CCCCC4)c3c2)cc1` [Example 9, 4-(((2-(4-(1H-pyrazol-1-yl)-piperidine-1-carbonyl)-4-(piperidine-1-carbonyl)-quinolin-6-yl)oxy)methyl) benzonitrile] was 0.0396 µM.
As to `O=C(c1cc(C(=O)N2CCCCC2)c2cc(OCc3ccc(C(F)(F)F)nc3)ccc2n1)N1CCC(n2cccn2)CC1` [Example 10, (4-(1H-pyrazol-1-yl)piperidin-1-yl)(4-(piperidine-1-carbon-yl)-6-((6-(trifluoromethyl)-pyridin-3-yl)methoxy)-quinolin-2-yl)methanone], the EC50 was found to be 0.0218 µM.
For `O=C(c1cc(C(=O)N2CCCCC2)c2cc(OCc3cn4c(F)cccc4n3)ccc2n1)N1CCC(n2cccn2)CC1` [Example 11, (4-(1H-pyrazol-1-yl)piperidin-1-yl)(6-((5-fluoroimidazo[1,2-a]pyridin-2-yl)methoxy)-4-(piperidine-1-carbonyl)-quinolin-2-yl)methanone], the EC50 came out at 0.0351 µM.
For `O=C(c1cc(C(=O)N2CCCCC2)c2cc(OCc3ncc(C(F)(F)F)cc3Cl)ccc2n1)N1CCC(n2cccn2)CC1` [Example 12, (4-(1H-pyrazol-1-yl)piperidin-1-yl)(6-((3-chloro-5-(trifluoro-methyl)pyridin-2-yl)methoxy)-4-(piperidine-1-carbonyl)-quinolin-2-yl)methanone], the EC50 is 0.0168 µM.
Then `N#Cc1ccc(COc2ccc3nc(C(=O)N4CCC(n5cccn5)CC4)cc(C(=O)N4CCCCC4)c3c2)cc1F` [Example 13, 4-(((2-(4-(1H-pyrazol-1-yl)-piperidine-1-carbonyl)-4-(piperidine-1-carbonyl)-quinolin-6-yl)oxy)methyl)-2-fluorobenzonitrile], with 0.02 µM.
With `O=C(c1cc(C(=O)N2CCCCC2)c2cc(OCc3ccc4nonc4c3)ccc2n1)N1CCC(n2cccn2)CC1` [Example 14, (4-(1H-pyrazol-1-yl)piperidin-1-yl)(6-(benzo[c][1,2,5]-oxadiazol-5-ylmethoxy)-4-(piperidine-1-carbonyl)-quinolin-2-yl)methanone], the EC50 was determined as 0.0147 µM.
`Cn1nnc2cc(COc3ccc4nc(C(=O)N5CCC(n6cccn6)CC5)cc(C(=O)N5CCCCC5)c4c3)ccc21` [Example 15, (4-(1H-pyrazol-1-yl)piperidin-1-yl)(6-((1-methyl-1H-benzo-[d][1,2,3]triazol-5-yl)methoxy)-4-(piperidine-1-carbonyl)-quinolin-2-yl)methanone]: the EC50 was determined as 0.0237 µM.
For `N#Cc1ccc(COc2ccc3nc(C(=O)N4CCC(n5cccn5)CC4)cc(C(=O)N4CCCCC4)c3c2)c(F)c1` [Example 16, 4-(((2-(4-(1H-pyrazol-1-yl)-piperidine-1-carbonyl)-4-(piperidine-1-carbonyl)-quinolin-6-yl)oxy)methyl)-3-fluorobenzonitrile], the EC50 turned out to be 0.0329 µM.
For the compound `Cn1ncc2cc(COc3ccc4nc(C(=O)N5CCC(n6cccn6)CC5)cc(C(=O)N5CCCCC5)c4c3)ccc21` [Example 17, (4-(1H-pyrazol-1-yl)piperidin-1-yl)(6-((1-methyl-1H-indazol-5-yl)methoxy)-4-(piperidine-1-carbonyl)quinolin-2-yl) methanone], the EC50 is 0.0508 µM.
Then `Cc1c(COc2ccc3nc(C(=O)N4CCC(n5cccn5)CC4)cc(C(=O)N4CCCCC4)c3c2)ccc2c1COC2=O` [Example 18, 5-(((2-(4-(1H-pyrazol-1-yl)-piperidine-1-carbonyl)-4-(piperidine-1-carbonyl)-quinolin-6-yl)oxy)methyl)-4-methylisobenzofuran-1(3H)-one], with 0.0219 µM; and `O=C1OCc2cc(COc3ccc4nc(C(=O)N5CCC(n6cccn6)CC5)cc(C(=O)N5CCCCC5)c4c3)ccc21` [Example 19, 5-(((2-(4-(1H-pyrazol-1-yl)-piperidine-1-carbonyl)-4-(piperidine-1-carbonyl)-quinolin-6-yl)oxy)methyl)-isobenzofuran-1(3H)-one], with 0.0316 µM.
As for `O=C1OCc2ccc(COc3ccc4nc(C(=O)N5CCC(n6cccn6)CC5)cc(C(=O)N5CCCCC5)c4c3)cc21` [Example 20, 6-(((2-(4-(1H-pyrazol-1-yl)-piperidine-1-carbonyl)-4-(piperidine-1-carbonyl)-quinolin-6-yl)oxy)methyl)-isobenzofuran-1(3H)-one], the EC50 is 0.0358 µM.
Then `O=C(c1cc(C(=O)N2CCCCC2)c2cc(OCc3ccc(Cl)cc3)ccc2n1)N1CCC(n2cccn2)CC1` [Example 21, (4-(1H-pyrazol-1-yl)piperidin-1-yl)(6-((4-chlorobenzyl)oxy)-4-(piperidine-1-carbonyl)quin-olin-2-yl)methanone], with 0.0343 µM.
For the compound `O=C(c1cc(C(=O)N2CCCCC2)c2cc(OCc3cc4ccccn4n3)ccc2n1)N1CCC(n2cccn2)CC1` [Example 22, (4-(1H-pyrazol-1-yl)piperidin-1-yl)(4-(piperidine-1-carbon-yl)-6-(pyrazolo[1,5-a]pyridin-2-ylmethoxy)quinolin-2-yl) methanone], the EC50 turned out to be 0.0446 µM.
The value for `O=C(c1cc(C(=O)N2CCCCC2)c2cc(OCc3nc4ccccc4o3)ccc2n1)N1CCC(n2cccn2)CC1` [Example 23, (4-(1H-pyrazol-1-yl)piperidin-1-yl)(6-(benzo[d]oxazol-2-ylmethoxy)-4-(piperidine-1-carbonyl)quinolin-2-yl) methanone] was 0.0366 µM.
